Results on 1 compound are retold here after PMC7481482, “Development of Anthraquinone Derivatives as Ectonucleoside Triphosphate Diphosphohydrolase (NTPDase) Inhibitors With Selectivity for NTPDase2 and NTPDase3” (Frontiers in Pharmacology, 2020).

One assay addresses T1, human NTPDase3 (Homo sapiens, UniProt O75355).
T1 construct: expressed in transfected cells; host or cells: COS-7 cells (membrane preparation)
T1 sequence (O75355 1-529): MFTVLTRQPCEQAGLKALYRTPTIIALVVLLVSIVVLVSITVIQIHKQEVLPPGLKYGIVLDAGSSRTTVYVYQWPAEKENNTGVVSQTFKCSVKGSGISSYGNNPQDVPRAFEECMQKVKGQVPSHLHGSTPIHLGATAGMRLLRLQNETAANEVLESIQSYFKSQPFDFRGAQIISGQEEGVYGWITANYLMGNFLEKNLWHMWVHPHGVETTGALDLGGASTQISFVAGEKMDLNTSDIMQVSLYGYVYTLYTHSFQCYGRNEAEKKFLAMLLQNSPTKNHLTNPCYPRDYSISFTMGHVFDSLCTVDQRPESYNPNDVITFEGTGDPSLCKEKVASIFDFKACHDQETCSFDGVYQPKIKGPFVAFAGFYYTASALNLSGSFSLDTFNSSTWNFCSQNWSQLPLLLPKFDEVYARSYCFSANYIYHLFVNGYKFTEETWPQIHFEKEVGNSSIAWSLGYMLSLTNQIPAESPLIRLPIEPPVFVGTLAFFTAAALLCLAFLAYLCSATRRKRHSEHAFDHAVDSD
As to the kind of experiment: Malachite green assay, human NTPDase3. Type of assay: biochemical. The note with it: 2 μM compound; 100 µM ATP; COS-7 membrane preparation; read-out: % inhibition at 2 μM concentration, NTPDase3. The method in brief:
(§1)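 COS-7 membranes expressing each NTPDase were preincubated with compound for 5 min at 37 °C, pH 7.4 HEPES buffer with 2 mM CaCl2/1 mM MgCl2. ATP was 50 µM for NTPDase1 and 100 µM for -2, -3, -8; reaction ran 15 min at 37 °C. Released phosphate read by malachite green at 600 nm; screen at 2 µM, IC50 over 0.03–30 µM in 2% DMSO.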

For another assay, the target named is T2, human NTPDase8 (Homo sapiens, UniProt Q5MY95).
T2 construct: expressed in transfected cells; host or cells: COS-7 cells (membrane preparation)
T2 sequence (Q5MY95 1-495): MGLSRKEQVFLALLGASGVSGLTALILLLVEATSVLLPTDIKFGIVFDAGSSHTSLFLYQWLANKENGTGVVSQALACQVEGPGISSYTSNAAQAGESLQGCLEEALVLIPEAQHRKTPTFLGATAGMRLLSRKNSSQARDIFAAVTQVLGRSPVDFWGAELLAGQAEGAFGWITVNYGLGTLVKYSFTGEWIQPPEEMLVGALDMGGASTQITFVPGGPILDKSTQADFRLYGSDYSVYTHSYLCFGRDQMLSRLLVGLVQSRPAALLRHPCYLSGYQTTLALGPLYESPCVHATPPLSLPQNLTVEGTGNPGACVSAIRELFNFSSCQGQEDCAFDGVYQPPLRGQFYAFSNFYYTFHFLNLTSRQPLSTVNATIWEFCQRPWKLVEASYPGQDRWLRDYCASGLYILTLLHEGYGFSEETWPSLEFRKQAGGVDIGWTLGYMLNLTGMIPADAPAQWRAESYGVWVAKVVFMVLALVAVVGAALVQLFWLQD
The assay can be described thus: Malachite green assay, human NTPDase8. It is filed as biochemical. The note with it: 2 μM compound; 100 µM ATP; COS-7 membrane preparation; read-out: % inhibition at 2 μM concentration, NTPDase8. In short, it runs like this: as §1

In the case of `Nc1c(S(=O)(=O)O)cc(Nc2cccc3ccccc23)c2c1C(=O)c1ccccc1C2=O` [Compound 15], the inhibition at 2 µM on human NTPDase3 is -4%; on human NTPDase8, 9%.
